The NIST ThermoML archive (doi:10.1021/je8005369)
± gives the expanded uncertainty stated by the source.

Details: Liquid; for mass density: Vibrating Wire Viscometer; for viscosity: Vibrating wire viscometry

For `CC(C)OC(C)C` [diisopropyl ether], the mass density (243.15 K, 100 kPa) was 772.385 ± 1.6 kg/m3, the viscosity (243.15 K, 100 kPa) was 0.6191 ± 0.015 mPa·s and the mass density (243.15 K, 4660 kPa) was 776.195 ± 1.6 kg/m3. For the same compound, the viscosity (243.15 K, 4660 kPa) was 0.6466 ± 0.016 mPa·s, the mass density (243.15 K, 10070 kPa) was 780.42 ± 1.6 kg/m3 and the viscosity (243.15 K, 10070 kPa) was 0.6826 ± 0.016 mPa·s. The mass density (243.15 K, 15370 kPa) was 784.377 ± 1.6 kg/m3, the viscosity (243.15 K, 15370 kPa) was 0.7177 ± 0.017 mPa·s and the mass density (243.15 K, 20860 kPa) was 788.392 ± 1.6 kg/m3. For the same compound, the viscosity (243.15 K, 20860 kPa) was 0.7529 ± 0.018 mPa·s, the mass density (253.15 K, 100 kPa) was 762.804 ± 1.6 kg/m3 and the viscosity (253.15 K, 100 kPa) was 0.5343 ± 0.013 mPa·s. It also gave a mass density (253.15 K, 4720 kPa) of 766.842 ± 1.6 kg/m3, a viscosity (253.15 K, 4720 kPa) of 0.5601 ± 0.014 mPa·s and a mass density (253.15 K, 9990 kPa) of 771.35 ± 1.6 kg/m3. The viscosity (253.15 K, 9990 kPa) was 0.5898 ± 0.014 mPa·s, the mass density (253.15 K, 15400 kPa) was 775.704 ± 1.6 kg/m3 and the viscosity (253.15 K, 15400 kPa) was 0.6187 ± 0.015 mPa·s. For the same compound, the mass density (253.15 K, 20740 kPa) was 779.692 ± 1.6 kg/m3, the viscosity (253.15 K, 20740 kPa) was 0.65 ± 0.016 mPa·s and the mass density (263.15 K, 100 kPa) was 753.037 ± 1.6 kg/m3. The viscosity (263.15 K, 100 kPa) was 0.4687 ± 0.012 mPa·s, the mass density (263.15 K, 4470 kPa) was 757.298 ± 1.6 kg/m3 and the viscosity (263.15 K, 4470 kPa) was 0.4896 ± 0.012 mPa·s. It also gave a mass density (263.15 K, 9490 kPa) of 761.805 ± 1.6 kg/m3, a viscosity (263.15 K, 9490 kPa) of 0.5141 ± 0.013 mPa·s and a mass density (263.15 K, 14490 kPa) of 766.126 ± 1.6 kg/m3. It also gave a viscosity (263.15 K, 14490 kPa) of 0.5388 ± 0.013 mPa·s, a mass density (263.15 K, 19640 kPa) of 770.142 ± 1.6 kg/m3 and a viscosity (263.15 K, 19640 kPa) of 0.5638 ± 0.014 mPa·s. The mass density (273.15 K, 100 kPa) was 743.309 ± 1.6 kg/m3, the viscosity (273.15 K, 100 kPa) was 0.4142 ± 0.011 mPa·s and the mass density (273.15 K, 4690 kPa) was 748.026 ± 1.6 kg/m3. It also gave a viscosity (273.15 K, 4690 kPa) of 0.4344 ± 0.011 mPa·s, a mass density (273.15 K, 10010 kPa) of 753.179 ± 1.6 kg/m3 and a viscosity (273.15 K, 10010 kPa) of 0.4579 ± 0.011 mPa·s. It also gave a mass density (273.15 K, 15290 kPa) of 757.99 ± 1.6 kg/m3, a viscosity (273.15 K, 15290 kPa) of 0.4815 ± 0.012 mPa·s and a mass density (273.15 K, 20420 kPa) of 762.359 ± 1.6 kg/m3. It also gave a viscosity (273.15 K, 20420 kPa) of 0.5042 ± 0.013 mPa·s, a mass density (283.15 K, 100 kPa) of 733.393 ± 1.5 kg/m3 and a viscosity (283.15 K, 100 kPa) of 0.3689 ± 0.0096 mPa·s. For the same compound, the mass density (283.15 K, 4700 kPa) was 738.525 ± 1.5 kg/m3, the viscosity (283.15 K, 4700 kPa) was 0.3877 ± 0.01 mPa·s and the mass density (283.15 K, 10100 kPa) was 744.147 ± 1.6 kg/m3. For the same compound, the viscosity (283.15 K, 10100 kPa) was 0.4088 ± 0.01 mPa·s, the mass density (283.15 K, 15460 kPa) was 749.321 ± 1.6 kg/m3 and the viscosity (283.15 K, 15460 kPa) was 0.4306 ± 0.011 mPa·s. The mass density (283.15 K, 21360 kPa) was 754.612 ± 1.6 kg/m3, the viscosity (283.15 K, 21360 kPa) was 0.456 ± 0.011 mPa·s and the mass density (293.15 K, 100 kPa) was 723.318 ± 1.5 kg/m3. The viscosity (293.15 K, 100 kPa) was 0.3311 ± 0.0088 mPa·s, the mass density (293.15 K, 4470 kPa) was 728.638 ± 1.5 kg/m3 and the viscosity (293.15 K, 4470 kPa) was 0.3474 ± 0.0091 mPa·s. For the same compound, the mass density (293.15 K, 9590 kPa) was 734.393 ± 1.5 kg/m3, the viscosity (293.15 K, 9590 kPa) was 0.3671 ± 0.0096 mPa·s and the mass density (293.15 K, 14750 kPa) was 739.779 ± 1.5 kg/m3. The viscosity (293.15 K, 14750 kPa) was 0.3855 ± 0.0099 mPa·s, the mass density (293.15 K, 20450 kPa) was 745.301 ± 1.6 kg/m3 and the viscosity (293.15 K, 20450 kPa) was 0.4079 ± 0.01 mPa·s. For the same compound, the mass density (303.15 K, 100 kPa) was 713.113 ± 1.5 kg/m3, the viscosity (303.15 K, 100 kPa) was 0.299 ± 0.0081 mPa·s and the mass density (303.15 K, 4440 kPa) was 718.817 ± 1.5 kg/m3. For the same compound, the viscosity (303.15 K, 4440 kPa) was 0.3124 ± 0.0084 mPa·s, the mass density (303.15 K, 9500 kPa) was 725.014 ± 1.5 kg/m3 and the viscosity (303.15 K, 9500 kPa) was 0.331 ± 0.0088 mPa·s. For the same compound, the mass density (303.15 K, 14650 kPa) was 730.787 ± 1.5 kg/m3, the viscosity (303.15 K, 14650 kPa) was 0.3496 ± 0.0092 mPa·s and the mass density (303.15 K, 19650 kPa) was 735.942 ± 1.5 kg/m3. For the same compound, the viscosity (303.15 K, 19650 kPa) was 0.3668 ± 0.0096 mPa·s, the mass density (313.15 K, 100 kPa) was 702.804 ± 1.5 kg/m3 and the viscosity (313.15 K, 100 kPa) was 0.2703 ± 0.0076 mPa·s. It also gave a mass density (313.15 K, 4840 kPa) of 709.502 ± 1.5 kg/m3, a viscosity (313.15 K, 4840 kPa) of 0.2869 ± 0.0079 mPa·s and a mass density (313.15 K, 10140 kPa) of 716.438 ± 1.5 kg/m3. For the same compound, the viscosity (313.15 K, 10140 kPa) was 0.3038 ± 0.0082 mPa·s, the mass density (313.15 K, 15550 kPa) was 722.843 ± 1.5 kg/m3 and the viscosity (313.15 K, 15550 kPa) was 0.3213 ± 0.0086 mPa·s. For the same compound, the mass density (313.15 K, 21490 kPa) was 729.298 ± 1.5 kg/m3, the viscosity (313.15 K, 21490 kPa) was 0.3414 ± 0.009 mPa·s and the mass density (323.15 K, 100 kPa) was 692.225 ± 1.5 kg/m3. The viscosity (323.15 K, 100 kPa) was 0.2468 ± 0.0071 mPa·s, the mass density (323.15 K, 4760 kPa) was 699.461 ± 1.5 kg/m3 and the viscosity (323.15 K, 4760 kPa) was 0.2615 ± 0.0074 mPa·s. For the same compound, the mass density (323.15 K, 10370 kPa) was 707.408 ± 1.5 kg/m3, the viscosity (323.15 K, 10370 kPa) was 0.2776 ± 0.0077 mPa·s and the mass density (323.15 K, 15480 kPa) was 713.832 ± 1.5 kg/m3. For the same compound, the viscosity (323.15 K, 15480 kPa) was 0.2946 ± 0.008 mPa·s, the mass density (323.15 K, 20780 kPa) was 720.04 ± 1.5 kg/m3 and the viscosity (323.15 K, 20780 kPa) was 0.311 ± 0.0084 mPa·s. The mass density (333.15 K, 100 kPa) was 681.435 ± 1.4 kg/m3, the viscosity (333.15 K, 100 kPa) was 0.2254 ± 0.0067 mPa·s and the mass density (333.15 K, 4750 kPa) was 689.427 ± 1.5 kg/m3. The viscosity (333.15 K, 4750 kPa) was 0.2389 ± 0.0069 mPa·s, the mass density (333.15 K, 10360 kPa) was 697.963 ± 1.5 kg/m3 and the viscosity (333.15 K, 10360 kPa) was 0.2554 ± 0.0073 mPa·s. The mass density (333.15 K, 15670 kPa) was 705.137 ± 1.5 kg/m3, the viscosity (333.15 K, 15670 kPa) was 0.2716 ± 0.0076 mPa·s and the mass density (333.15 K, 20890 kPa) was 711.63 ± 1.5 kg/m3. It also gave a viscosity (333.15 K, 20890 kPa) of 0.2848 ± 0.0078 mPa·s, a mass density (343.15 K, 130 kPa) of 670.401 ± 1.4 kg/m3 and a viscosity (343.15 K, 130 kPa) of 0.2064 ± 0.0063 mPa·s. It also gave a mass density (343.15 K, 4390 kPa) of 678.519 ± 1.4 kg/m3, a viscosity (343.15 K, 4390 kPa) of 0.2183 ± 0.0065 mPa·s and a mass density (343.15 K, 9530 kPa) of 687.069 ± 1.5 kg/m3. For the same compound, the viscosity (343.15 K, 9530 kPa) was 0.2335 ± 0.0068 mPa·s, the mass density (343.15 K, 14740 kPa) was 694.891 ± 1.5 kg/m3 and the viscosity (343.15 K, 14740 kPa) was 0.2471 ± 0.0071 mPa·s. It also gave a mass density (343.15 K, 21230 kPa) of 703.496 ± 1.5 kg/m3, a viscosity (343.15 K, 21230 kPa) of 0.2649 ± 0.0074 mPa·s and a mass density (353.15 K, 200 kPa) of 659.151 ± 1.4 kg/m3. For the same compound, the viscosity (353.15 K, 200 kPa) was 0.1889 ± 0.006 mPa·s, the mass density (353.15 K, 4830 kPa) was 668.72 ± 1.4 kg/m3 and the viscosity (353.15 K, 4830 kPa) was 0.203 ± 0.0062 mPa·s. For the same compound, the mass density (353.15 K, 10320 kPa) was 678.629 ± 1.4 kg/m3, the viscosity (353.15 K, 10320 kPa) was 0.2176 ± 0.0065 mPa·s and the mass density (353.15 K, 15760 kPa) was 687.163 ± 1.4 kg/m3. The viscosity (353.15 K, 15760 kPa) was 0.2324 ± 0.0068 mPa·s, the mass density (353.15 K, 21100 kPa) was 694.71 ± 1.5 kg/m3 and the viscosity (353.15 K, 21100 kPa) was 0.2466 ± 0.0071 mPa·s. For the same compound, the mass density (363.15 K, 230 kPa) was 647.498 ± 1.4 kg/m3, the viscosity (363.15 K, 230 kPa) was 0.1736 ± 0.0057 mPa·s and the mass density (363.15 K, 4730 kPa) was 657.763 ± 1.4 kg/m3. It also gave a viscosity (363.15 K, 4730 kPa) of 0.1871 ± 0.006 mPa·s, a mass density (363.15 K, 10170 kPa) of 668.51 ± 1.4 kg/m3 and a viscosity (363.15 K, 10170 kPa) of 0.2014 ± 0.0062 mPa·s. For the same compound, the mass density (363.15 K, 15830 kPa) was 678.192 ± 1.4 kg/m3, the viscosity (363.15 K, 15830 kPa) was 0.2152 ± 0.0065 mPa·s and the mass density (363.15 K, 20860 kPa) was 685.734 ± 1.4 kg/m3. The viscosity (363.15 K, 20860 kPa) was 0.2294 ± 0.0067 mPa·s, the mass density (373.15 K, 310 kPa) was 635.452 ± 1.4 kg/m3 and the viscosity (373.15 K, 310 kPa) was 0.1602 ± 0.0055 mPa·s. For the same compound, the mass density (373.15 K, 4730 kPa) was 646.883 ± 1.4 kg/m3, the viscosity (373.15 K, 4730 kPa) was 0.1721 ± 0.0057 mPa·s and the mass density (373.15 K, 9630 kPa) was 657.52 ± 1.4 kg/m3. It also gave a viscosity (373.15 K, 9630 kPa) of 0.1854 ± 0.0059 mPa·s, a mass density (373.15 K, 15600 kPa) of 668.559 ± 1.4 kg/m3 and a viscosity (373.15 K, 15600 kPa) of 0.2008 ± 0.0062 mPa·s. For the same compound, the mass density (373.15 K, 21680 kPa) was 678.358 ± 1.4 kg/m3 and the viscosity (373.15 K, 21680 kPa) was 0.2152 ± 0.0065 mPa·s.
